Assay: Storage stability: content of active ingredient in water dispersible granules
Format: physicochemical
Protocol: A test on the storage stability was performed with the following results:
Comparison of stability of fluoroxypyr and metsulfuon-methyl when a WG granulation is made according to U.S. Pat. No. 5,688,743 (Dow) and the encapsulation step has been omitted and replaced by a joint milling of the corresponding amount of fluoroxypyr and metsulfuron-methyl: […]

[1] = FXY + MET 26 WG (Fluroxypyr 250 g/kg + Metsulfuron 10 g/kg WG, microencapsulated fluroxypyr), test item FXY-MSF_0604, column without storage
[2] = FXY + MET 26 WG (microencapsulated fluroxypyr), GLASS, 0 ± 2° C., after storage
[3] = FXY + MET 26 WG (microencapsulated fluroxypyr), GLASS, 54 ± 2° C., after storage
[4] = FXY + MET 26 WG (microencapsulated fluroxypyr), PLASTIC, 0 ± 2° C., after storage
[5] = FXY + MET 26 WG (microencapsulated fluroxypyr), PLASTIC, 54 ± 2° C., after storage
[6] = Fluroxypyr 250 g/kg + Metsulfuron 10 g/kg WG WITHOUT microencapsulation of fluroxypyr (joint milling, per US 5,688,743), test item FXY-MSF_060/, column without storage
[7] = WG WITHOUT microencapsulation of fluroxypyr, GLASS, 0 ± 2° C., after storage
[8] = WG WITHOUT microencapsulation of fluroxypyr, GLASS, 54 ± 2° C., after storage
[9] = WG WITHOUT microencapsulation of fluroxypyr, PLASTIC, 0 ± 2° C., after storage
[10] = WG WITHOUT microencapsulation of fluroxypyr, PLASTIC, 54 ± 2° C., after storage

In the case of `Nc1c(Cl)c(F)nc(OCC(=O)O)c1Cl` [Fluroxypyr], the “Content of active ingredient” value [1] is reported as 39.37 wt-%, the “Content of active ingredient” value [2] is reported as 38.65 wt-% and the “Content of active ingredient” value [3] is reported as 38.57 wt-%. The “Content of active ingredient” value [4] was 38.51 wt-%, the “Content of active ingredient” value [5] was 38.35 wt-% and the “Content of active ingredient” value [6] was 39.41 wt-%. For the same molecule, the “Content of active ingredient” value [7] was 34.44 wt-%, the “Content of active ingredient” value [8] was 28.02 wt-% and the “Content of active ingredient” value [9] was 36.34 wt-%. The “Content of active ingredient” value [10] was 16.05 wt-%.

In the case of `COc1nc(C)nc(NC(=O)NS(=O)(=O)c2ccccc2C(=O)O)n1` [Metsulfuron], the “Content of active ingredient” value [1] is reported as 1.18 wt-%, the “Content of active ingredient” value [2] is reported as 1.18 wt-% and the “Content of active ingredient” value [3] is reported as 1.18 wt-%. The “Content of active ingredient” value [4] was 1.19 wt-%, the “Content of active ingredient” value [5] was 1.18 wt-% and the “Content of active ingredient” value [6] was 1.16 wt-%. For the same molecule, the “Content of active ingredient” value [7] was 0.35 wt-%, the “Content of active ingredient” value [8] was 0.21 wt-% and the “Content of active ingredient” value [9] was 0.39 wt-%. The “Content of active ingredient” value [10] was 0.24 wt-%.

From US8263530B2, “Agrochemical formulations containing microcapsules” (priority 2006, dated 2012)
